Patent publication US9232793B2, “Methods of inhibiting microbial growth using deoxyaldohexoses” (LVMH Recherche, priority 2008, dated 2016)

Key:
Assay in all cases: Agar diffusion antimicrobial test, MIC determination
Assay type in all cases: cell-based
[1] = tested on: Aspergillus niger IP 1431.83; details: A. niger
Description: (§1) The culture medium at pH 6, pH 7 and pH 8, inoculated beforehand with the test strains, is poured into Petri dishes, with one pH and one strain per dish. After solidification, 100 μl are deposited for each of the concentrations of the test substance, as well as a solvent control and a positive control. After incubation, the inhibition diameter is measured after diffusion of the test product into the agar, and there is deduced therefrom the minimum bacteriostatic concentration (MIC), which is the lowest concentration of product inhibiting the multiplication of the microbes. The test strains are the following: • Aspergillus niger IP 1431.83, • Candida albicans IP 48.72, • Enterococcus hirae CIP 58.55, • Staphylococcus aureus CIP 4.83, • Burkholdena cepacia CIP 103924, • Pseudomonas aeruginosa CIP 82.1118. For each strain, 120 ml of each of the three Mueller Hinton media pH 6, pH 7 and pH 8 are inoculated with 1.2 ml of each suspension of microbe having a titre of 10^7 CFU/ml in order to obtain a titre equal to 10^5 CFU/ml. 15 ml are poured into each dish, with one dish per medium and per strain. After solidification, three steel cylinders are placed at the surface of each dish. 100 mg (approximately) of the powder consisting of the test alkyl glycoside are taken up in 1 ml of methanol (solution A at 10%). Next, the concentration range is prepared as described below: • Solution B1 at 1%: 300 μl of solution A+2.7 ml of sterile water, • Solution B2 at 0.5%: 300 μl of solution A+5.7 ml of sterile water, • Solution B3 at 0.1%: 1 ml of solution B1+9 ml of sterile water, • Solution B4 at 0.05%: 1 ml of solution B2+9 ml of sterile water. Only solutions B2, B3 and B4 are tested during the trial. 100 μl (pH 6, pH 7 and pH 8) of the following solutions are introduced into each cylinder: • Methanol control (prepared for each strain at pH 7), • Solution B4 at 0.05%, • Solution B3 at 0.1%, • Solution B2 at 0.5%. Incubation at 37° C.±1° C. for 24 hours (48 h for Enterococcus hirae). The inhibition of growth of the microbes leads to measurement, using a vernier caliper, in millimeters, of an inhibition diameter after diffusion of the test product into the agar. The minimum bacteriostatic concentration (MIC) is given by the lowest concentration of product which inhibits the multiplication of the microbes. In the case where the highest concentration ([…]) is not active, this is noted (>500). The tests were carried out on various strains at pH 7, for alkyl glycoside concentrations equal to 0.05%, 0.1% and 0.5% by weight.

[2] = tested on: Burkholdena cepacia CIP 103924; details: B. cepacia
Description: as §1

[3] = tested on: Candida albicans IP 48.72; details: C. albicans
Description: as §1

[4] = tested on: Enterococcus hirae CIP 58.55; details: E. hirae
Description: as §1

[5] = tested on: Pseudomonas aeruginosa CIP 82.1118; details: P. aeruginosa
Description: as §1

[6] = tested on: Staphylococcus aureus CIP 4.83; details: S. aureus
Description: as §1

MIC ([1]; pH 7) [µg/mL] | MIC ([1]; pH 7, value in brackets) [µM] | MIC ([2]; pH 7) [µg/mL] | MIC ([2]; pH 7, value in brackets) [µM] | MIC ([3]; pH 7) [µg/mL] | MIC ([3]; pH 7, value in brackets) [µM] | MIC ([4]; pH 7) [µg/mL] | MIC ([4]; pH 7, value in brackets) [µM] | MIC ([5]; pH 7) [µg/mL] | MIC ([5]; pH 7, value in brackets) [µM] | MIC ([6]; pH 7) [µg/mL] | MIC ([6]; pH 7, value in brackets) [µM] | SMILES
50 | 181 | > 500 | > 1810 | 100 | 362 | 50 | 181 | > 500 | > 1810 | 50 | 181 | CCCCCCCCO[C@H]1O[C@@H](C)[C@@H](O)[C@@H](O)[C@@H]1O [Fuc-8, octyl beta-L-fucoside]
50 | 150 | > 500 | > 1500 | > 500 | > 1500 | 50 | 150 | > 500 | > 1500 | 50 | 150 | CCCCCCCCCCCCO[C@H]1O[C@@H](C)[C@@H](O)[C@@H](O)[C@@H]1O [Fuc-12, dodecyl beta-L-fucoside]
50 | 181 | 100 | 362 | 100 | 362 | 50 | 181 | 100 | 362 | 50 | 181 | CCCCCCCCOC1O[C@@H](C)[C@H](O)[C@@H](O)[C@H]1O (stereo partly drawn) [Rha-8, octyl L-rhamnoside]
50 | 150 | 100 | 301 | 50 | 150 | 50 | 150 | 50 | 150 | 50 | 150 | CCCCCCCCCCCCOC1O[C@@H](C)[C@H](O)[C@@H](O)[C@H]1O (stereo partly drawn) [Rha-12, dodecyl L-rhamnoside]
